Experimental data as given in the supplement of paper PMC11451515.

Tested on: P12-Ichikawa
Assay: cell viability relative to DMSO control; higher = less cytotoxic
Conditions: 48 h
Summary of the method: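 Viability is a per-plate percentage relative to DMSO wells, with cell-free wells as background. CellTiter-Glo One luminescence was read after 48 h at 37°C on 1536-well plates (5 μl) of NOMO1 or SEM (500 cells/well) or P12-Ichikawa (1000 cells/well) leukemia cells. The cells had been adapted for at least four passages in each medium and pin-dosed with library compounds in DMSO from 47 μM to 0.79 nM in 11 threefold steps.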

[1] = HPLM + 10% dialyzed FBS, 0.000781 µM
[2] = HPLM + 10% dialyzed FBS, 0.00234 µM
[3] = HPLM + 10% dialyzed FBS, 0.00702 µM
[4] = HPLM + 10% dialyzed FBS, 0.0211 µM
[5] = HPLM + 10% dialyzed FBS, 0.0632 µM
[6] = HPLM + 10% dialyzed FBS, 0.19 µM
[7] = HPLM + 10% dialyzed FBS, 0.569 µM
[8] = HPLM + 10% dialyzed FBS, 1.71 µM
[9] = HPLM + 10% dialyzed FBS, 5.12 µM
[10] = HPLM + 10% dialyzed FBS, 15.4 µM
[11] = HPLM + 10% dialyzed FBS, 46.1 µM
[12] = RPMI 5 mM glucose + 10% FBS, 0.000781 µM
[13] = RPMI 5 mM glucose + 10% FBS, 0.00234 µM
[14] = RPMI 5 mM glucose + 10% FBS, 0.00702 µM
[15] = RPMI 5 mM glucose + 10% FBS, 0.0211 µM
[16] = RPMI 5 mM glucose + 10% FBS, 0.0632 µM
[17] = RPMI 5 mM glucose + 10% FBS, 0.19 µM
[18] = RPMI 5 mM glucose + 10% FBS, 0.569 µM
[19] = RPMI 5 mM glucose + 10% FBS, 1.71 µM
[20] = RPMI 5 mM glucose + 10% FBS, 5.12 µM
[21] = RPMI 5 mM glucose + 10% FBS, 15.4 µM
[22] = RPMI 5 mM glucose + 10% FBS, 46.1 µM
[23] = RPMI 5 mM glucose + 10% dialyzed FBS, 0.000781 µM
[24] = RPMI 5 mM glucose + 10% dialyzed FBS, 0.00234 µM
[25] = RPMI 5 mM glucose + 10% dialyzed FBS, 0.00702 µM
[26] = RPMI 5 mM glucose + 10% dialyzed FBS, 0.0211 µM
[27] = RPMI 5 mM glucose + 10% dialyzed FBS, 0.0632 µM
[28] = RPMI 5 mM glucose + 10% dialyzed FBS, 0.19 µM
[29] = RPMI 5 mM glucose + 10% dialyzed FBS, 0.569 µM
[30] = RPMI 5 mM glucose + 10% dialyzed FBS, 1.71 µM
[31] = RPMI 5 mM glucose + 10% dialyzed FBS, 5.12 µM
[32] = RPMI 5 mM glucose + 10% dialyzed FBS, 15.4 µM
[33] = RPMI 5 mM glucose + 10% dialyzed FBS, 46.1 µM

SMILES	cell viability [1] [%]	cell viability [2] [%]	cell viability [3] [%]	cell viability [4] [%]	cell viability [5] [%]	cell viability [6] [%]	cell viability [7] [%]	cell viability [8] [%]	cell viability [9] [%]	cell viability [10] [%]	cell viability [11] [%]	cell viability [12] [%]	cell viability [13] [%]	cell viability [14] [%]	cell viability [15] [%]	cell viability [16] [%]	cell viability [17] [%]	cell viability [18] [%]	cell viability [19] [%]	cell viability [20] [%]	cell viability [21] [%]	cell viability [22] [%]	cell viability [23] [%]	cell viability [24] [%]	cell viability [25] [%]	cell viability [26] [%]	cell viability [27] [%]	cell viability [28] [%]	cell viability [29] [%]	cell viability [30] [%]	cell viability [31] [%]	cell viability [32] [%]	cell viability [33] [%]
CCOC1=CC=CC=C1N\2C(=O)C3=C(C=CC=C3)\N=C2C(C)N4CCN(CC4)C(=O)COC5=CC=C(Cl)C=C5 (stereo not given)	121	120	116	115	107	111	72.3	15.9	8.63	6.31	4.74	121	126	119	110	117	111	94.4	51.8	9.87	5.31	4.69											
OCc1ccc(-c2ccc(-c3ccc(CO)s3)o2)s1	116	116	106	116	101	105	102	106	98	97.8	87.3												118	123	130	125	118	109	104	95.4	96.3	91	78.6
O=C1NC(=O)/C(=C/c2ccc(-c3ccc(F)cc3O)o2)S1	113	117	116	121	112	116	108	107	97.7	97.9	89.7	116	117	112	112	112	111	102	90.4	90.1	80	65.7	115	120	121	117	117	121	117	88.2	89.5	84.3	72.4
COC1=CC=C2CN(C)CC[C@@]34\C=C/[C@H](O)C[C@@H]3OC1=C24																							121	124	118	117	130	120	119	121	82.6	102	111
CON(C)C(=O)N1/N=C(S[C@@]1(CCCN)C2=CC=CC=C2)/C3=CC(=CC=C3F)F	102	118	122	83.1	12.1	10.6	10.1	10.1	9	11.4	10.7	101	114	123	61.1	13.7	12.6	14.3	10.8	8.36	9.67	11.1											
Cc1c(C)c2c(c(C)c1O)CCC(C)(COc1ccc(CC3SC(=O)NC3=O)cc1)O2 (stereo not given)	112	127	121	126	126	127	131	136	129	118	109																						
O=C(Nc1cccnn1)N1CCC(=Cc2cccc(Oc3ccc(C(F)(F)F)cn3)c2)CC1	92.9	94.1	91.4	11.9	106	103	101	101	102	94.4	87.4	85	86.8	96	12.6	101	103	99.7	103	95.7	80.3	76.8	92	93.9	101	47.1	110	100	102	105	101	90.3	81.5
COC1=CC=C2/C3=N/CCN3\C(=N/C2=C1OC)NC(=O)C4=CC=CN=C4	113	124	110	117	129	118	113	123	108	92.6	89.7	108	110	115	108	114	115	104	102	78.8	73.4	58	111	120	115	119	115	117	111	105	97.3	86.1	65.9
CO/N=C(\C(=O)N[C@@H]1C(=O)N2C(C(=O)OCOC(=O)C(C)(C)C)=C(/C=C\c3scnc3C)CS[C@H]12)c1csc(N)n1	91.7	102	105	104	108	110	106	106	110	89.8	72.4	85.6	91.6	101	99.6	101	103	96.4	103	103	75.8	60.1	92	89.6	102	91.8	104	106	99.2	98.7	102	80.9	57.2
